Patent EP3566700A1, “AMBROXOL FOR DNA DAMAGE REPAIR DISEASE THERAPIES” (Universitat Autònoma de Barcelona, priority 2018, dated 2019)

Legend:
[1] = tested on: FANCA-deficient lymphoblastoid cell lines; test: FCM assay: cell cycle analysis (cells in G2/M phase); assay type: cell-based, human; details: three FANCA-deficient cell lines; basal around 20% without treatment
[2] = tested on: FANCD2 ubiquitination; test: FANCD2 ubiquitination by Western blotting; assay type: cell-based, human; details: two FANCA-deficient lymphoblastoid cell lines
Description: To disregard a direct effect on FA/BRCA pathway, FANCD2 ubiquitination was analyzed by Western blotting in two different FANCA-deficient lymphoblastoid cell lines.

[3] = tested on: Fanca-deficient mice; test: Chronic treatment of Fanca-deficient mice: survival and general health; assay type: in vivo
Description: (§1) Fanca-deficient mice strain was Fanca^tm1Faw and genetic background 129P2/OlaHsd * FVB with exon deletion 4-7 (c.f. Cheng NC et al., "Mice with a targeted disruption of the Fanconi anemia homolog Fanca", Hum Mol Genet. 2000, vol. 9(12), pp. 1805-11). 30 male mice were randomized by age (12 to 16 weeks) and weight (25 grams on average) in three experimental groups (water, NAC and AMB).
(§2) NAC (40mM) (used for comparative purposes) and Ambroxol (1mM) were administered in drinking water (filtered and UV irradiated) ad libitum. To monitor MN on blood cells (erythrocytes and reticulocytes) mice were tail bleeded on weeks 1, 2, 4, 6, 8, 12, 16 and 24. Hematological parameters and blood counts were also evaluated. At the end of the study mice were euthanized and bone marrow, blood and organ samples (spleen, lung, and liver) collected.

[4] = tested on: Fanca-deficient mice; test: Histopathology study of spleen, liver and lung; assay type: in vivo
Description: as §1, §2
A total of 7 mice were studied in the placebo (water) group and 10 mice in the NAC or Ambroxol treated groups. Samples (spleen, liver and lung) were fixed overnight in 10 % neutral buffered formalin, embedded in paraffin, sectioned in 3 µm thick and dried. Slides were dewaxed and re-hydrated through a series of graded ethanol until water and finally stained with hematoxilin-eosin (H-E). Photographs were taken using an Olympus DP73 digital camera and a Vanox AHBS3 Olympus microscope.

[5] = tested on: Fanca-deficient mice; test: Telomere fluorescence analysis on spleen tissue sections by Q-FISH; assay type: in vivo; details: for telomere length: compared with control treatment (water)
Description: as §1, §2
Quantitative telomere fluorescence in situ hybridization (Q-FISH) was performed directly on spleen tissue sections as previously described (c.f. Flores I et al., "The longest telomeres: a general signature of adult stem cell compartments", Genes Dev. 2008; vol. 22(5), pp. 654-67). Spleen tissue was hybridized with the PNA telomeric oligonucleotide (CCCTTA)3 labeled with Cy3 (PE Biosystems). After that, digital images were acquired.
Confocal microscopy was performed at room temperature with a laser-scanning microscope (TSC SP5) using a Plan Apo 63Å-1.40 NA oil immersion objective (HCX). Maximal projection of z-stack images generated using advanced fluorescence software (LAS) was analyzed with Definiens XD software package. DAPI images were used to detect telomeric signals inside each nucleus. To study telomere length, average intensity of individual telomeres of around 940 nuclei per mouse was analyzed. To study short telomeres, intensity of around 31,000 individual telomeres was studied per mouse. A total of 7 mice were studied in the control group and 10 mice in NAC or Ambroxol groups.

[6] = affected mice/mice studied, H2O 0/7
[7] = affected mice/mice studied, H2O 1/7
[8] = affected mice/mice studied, H2O 2/7

## Nc1c(Br)cc(Br)cc1CN[C@H]1CC[C@H](O)CC1 [Ambroxol, trans-4-(2-amino-3,5-dibromobenzylamino)cyclohexanol]
[1]
  percentage of cells in G2/M phase in basal conditions: lowered this percentage
[2]
  FANCD2 ubiquitination: unable to restore FANCD2 ubiquitination
[3]; 1 year, Ambroxol 1mM in drinking water ad libitum, 40 % of control mice alive
  survival at the end of the experiment: All mice from the Ambroxol group were alive and healthy
[3]; related to untreated mice
  general health condition and survival: improvement
[4]; [6]
  Liver, Light/moderate: Steatosis: 2/10
  Lung, Light/moderate: Pleuritis: 1/10
[4]; [7]
  Liver, Light/moderate: Vascular congestion: 1/10
  Liver, Severe: Multiple myeloid precursor infiltration: 0/10
  Lung, Light/moderate: BALT activation: 1/10
  Lung, Light/moderate: Fibrosis: 0/10
  Lung, Light/moderate: Interstitial pneumonia: 5/10
  Lung, Severe: General vascular congestion: 0/10
  Lung, Severe: Myeloid-shape cellullar embolism: 0/10
  Lung, Severe: Osseous metaplasia: 0/10
  Spleen, Light/moderate: Lymphoid hyperplasia: 3/10
[4]; [8]
  Liver, Severe: Vesicular steatosis: 0/10
  Spleen, Severe: Spleen hyperplasia (likely linfoma): 0/10
[4]; affected mice/mice studied, H2O 3/7
  Liver, Light/moderate: Chronic hepatitis (perivascular): 7/10
[4]; end of experiment (1 year)
  severe organ defects: no severe organ defects
[5]; one year of treatment
  improvement in telomere's length with respect to NAC: about 5 fold
  telomere length: significant increase
[5]; untreated versus Ambroxol treated mice
  length of short telomeres: significantly shorter in untreated mice
[5]; untreated versus treated mice
  proportion of short telomeres respect the total number of telomeres: significantly bigger in untreated mice

## CC(=O)N[C@@H](CS)C(=O)O [NAC, N-acetylcysteine]
[5]; one year of treatment
  telomere length: modest improvement
